Experimental data taken from US20250009725A1, “PHARMACEUTICAL COMPOSITION HAVING EXCELLENT DISSOLUTION PROPERTIES” (DAIICHI SANKYO COMPANY, LIMITED, priority 2021, published 2025).
Structures can show the parent of a compound that is named as a salt.

Experiment: Solubility and dissolution of valemetostat tosylate under vigorous or slow agitation
Type: physicochemical
Excerpt: The object of the present invention is to provide a pharmaceutical composition in which valemetostat or a pharmaceutically acceptable salt thereof, particularly valemetostat tosylate, has excellent dissolution properties. […] Since the effect of vigorous agitation cannot be expected in vivo, a pharmaceutical composition having sufficient dissolution properties in vivo is needed.

For Cc1cc(C)c(CNC(=O)c2cc(Cl)c3c(c2C)O[C@@](C)([C@H]2CC[C@H](N(C)C)CC2)O3)c(=O)[nH]1 [valemetostat tosylate, (2R)-7-chloro-2-[trans-4-(dimethylamino)cyclohexyl]-N-[(4,6-dimethyl-2-oxo-1,2-dihydropyridin-3-yl)methyl]-2,4-dimethyl-1,3-benzodioxol-5-carboxamide p-toluenesulfonate], the “solubility (in words)” value was “sufficient solubility”.
